Source: patent EP0790989B1, “CERTAIN SUBSTITUTED BENZYLAMINE DERIVATIVES; A NEW CLASS OF NEUROPEPTIDE Y1 SPECIFIC LIGANDS” (PFIZER INC., priority 1994, dated 1996)
Structures can show the parent of a compound that is named as a salt.

Target: T1, human NPY1 receptors (Homo sapiens, UniProt P25929)
T1 construct: SK-N-MC cells were purchased from ATCC (Rockville, MD); host or cells: SK-N-MC cells (human neuroepithelioma line), intact confluent monolayers
T1 sequence (P25929 1-384): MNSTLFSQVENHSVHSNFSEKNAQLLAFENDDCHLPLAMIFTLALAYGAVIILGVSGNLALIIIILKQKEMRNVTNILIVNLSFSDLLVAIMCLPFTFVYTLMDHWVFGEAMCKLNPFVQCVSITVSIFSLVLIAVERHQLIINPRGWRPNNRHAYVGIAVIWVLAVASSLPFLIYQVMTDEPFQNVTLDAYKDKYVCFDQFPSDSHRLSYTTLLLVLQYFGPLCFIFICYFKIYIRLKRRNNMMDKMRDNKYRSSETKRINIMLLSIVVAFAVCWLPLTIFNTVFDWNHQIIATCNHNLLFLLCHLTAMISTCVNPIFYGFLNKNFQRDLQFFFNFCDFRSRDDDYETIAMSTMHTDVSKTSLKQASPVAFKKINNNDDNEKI
Test: Assay for Human NPY1 receptor binding activity ([125I]PYY binding to SK-N-MC cells)
Details: IC50, [125I]PYY (~50 pM) binding to confluent SK-N-MC cells, 3 hour incubation at room temperature
Experimental: The procedure used is similar to that described by Gordon et al. (J. Neurochem. 55:506-513, 1990). SK-N-MC cells were purchased from ATCC (Rockville, MD). Cells were maintained at 37°C and 5% CO2 in Dulbecco's modified essential media (DMEM) with L-glutamine and 110 mg/L sodium pyruvate, which was supplemented with 10% fetal bovine serum and 25 mM HEPES (pH 7.3). The binding assay was performed in 24-well plates (Falcon) when the cells were confluent. Taking care to not disturb the cells on the bottom of the wells, the media was aspirated, and 0.5 ml of Dulbecco's phosphate buffered saline (DPBS) with calcium and magnesium were added to each well. The DPBS was aspirated and an additional aliquot of DPBS was added and aspirated. To begin the assay, binding buffer consisting of serum-free DMEM containing 0.5% bovine serum albumin, 0.1% bacitracin and 0.1 mM phenylmethylsulfonylfluoride was added to each well. The cells and the binding buffer preincubated for 30 minutes at room temperature, at which point the drug dilution and [^125I]PYY (NEN-DuPont: 50000 -75000 cpm ∼ 50 pM) were added to yield a final volume of 250 ul. Nonspecific binding was defined with […] NPY (porcine or human, Bachem California). After a 3 hour incubation at room temperature, the plates were then put on ice and the wells were aspirated. The cells were washed 4-6 times with 0.5 ml of ice-cold DPBS. A dilute solution of Triton X-100 (1%) was then added to each well. After approximately 1 hour at room temperature, an aliquot from each well was transferred to a 12x75 mm testtube, and the amount of [^125I] was quantitated on a gamma counter with an efficiency of 80-85% (Genesys 5000, Laboratory Technologies). IC50 values were calculated with the non-linear curve fitting program RS/1 (BBN Software Products Corp., Cambridge, MA).

Row | Structure (SMILES) | IC50 [nM]
1 | CCOc1cccc(C2(N3CCN(c4ccccc4)CC3)CCC(CC)CC2)c1 (stereo not drawn) [Compound 20, 1-(3-Ethoxyphenyl)-1-(4-phenylpiperazin-1-yl)-4-ethyl-cyclohexane dihydrochloride] | 76
2 | CCOc1cccc(C2(N3CCN(c4ccccc4)CC3)CCC(CC)CC2)c1 (stereo not drawn) [Compound 21, 1-(3-Ethoxyphenyl)-1-(4-phenylpiperazin-1-yl)-4-ethyl-cyclohexane dihydrochloride] | 525
3 | CCOc1cccc(C2(N3CCN(c4ccccc4)CC3)CCCCC2)c1 [Compound 9, 1-(3-Ethoxyphenyl)-1-(4-phenylpiperazin-1-yl)-cyclohexane dihydrochloride] | 137
4 | COc1cccc(C2(N3CCN(c4ccccc4)CC3)CCC(C)CC2)c1 (stereo not drawn) [Compound 13, 1-(3-Methoxyphenyl)-1-(4-phenylpiperazin-1-yl)-4-methyl-cyclohexane dihydrochloride] | 67
5 | CCOc1cccc(C2(N3CCN(c4ccccc4)CC3)CCC(C)CC2)c1 (stereo not drawn) [Compound 18, 1-(3-Ethoxyphenyl)-1-(4-phenylpiperazin-1-yl)-4-methyl-cyclohexane dihydrochloride] | 75
6 | COCOc1cccc(C2(N3CCN(c4ccccc4)CC3)CCC(C)CC2)c1 (stereo not drawn) [Compound 29, 1-(3-Methoxymethoxyphenyl)-1-(4-phenylpiperazin-1-yl)-4-methyl-cyclohexane dihydrochloride] | 39
